{
  "source": "patent US4138554A",
  "about": "“7-[D-α-(4-Hydroxy-1,5-naphthyridine-3-carboxamido)-α-phenyl (and p-hydroxyphenyl)acetamido]-3-carbamoyloxymethyl-3-cephem-4-carboxylic acids” (priority 1977, dated 1979)",
  "assay_type_in_all_cases": "cell-based",
  "key": {"[1]": {"test_system": "S. aureus", "experiment": "MIC by serial two-fold agar dilution (Mueller-Hinton agar), S. aureus", "conditions": "Staphylococcus aureus", "experimental": "(§1) Minimum inhibitory concentrations (MIC) of BB-S520 were determined by serial two-fold agar dilution method using Steers' apparatus on Meuller-Hinton agar plate against 31 test organisms for the primary screening and also against 61 strains of Pseudomonas aeruginosa for the secondary evaluation. The results are shown in Table 1 and Table 2 along with those of BB-S514 and sulbenicillin.\n(§2) Minimum inhibitory concentrations (MIC) of cephalosporins in the present study were determined by serial two-fold agar dilution method using Steers' apparatus on Mueller-Hinton agar plate against 31 test organisms for the primary screening and also against 61 strains of Pseudomonas aeruginosa for the secondary evaluation."}, "[2]": {"test_system": "E. coli", "experiment": "MIC by serial two-fold agar dilution (Mueller-Hinton agar), E. coli", "conditions": "Escherichia coli, read-out: MIC", "experimental": "as §1, §2"}, "[3]": {"test_system": "K. pneumoniae", "experiment": "MIC by serial two-fold agar dilution (Mueller-Hinton agar), K. pneumoniae", "conditions": "Klebsiella pneumoniae, K. pneumoniae A9977, Table 6", "experimental": "as §1, §2"}, "[4]": {"test_system": "Klebsiella sp.", "experiment": "MIC by serial two-fold agar dilution (Mueller-Hinton agar), Klebsiella sp.", "conditions": "Klebsiella sp. A20452, Table 6; read-out: MIC", "experimental": "as §1, §2"}, "[5]": {"test_system": "E. cloacae", "experiment": "MIC by serial two-fold agar dilution (Mueller-Hinton agar), E. cloacae", "conditions": "Enterobacter cloacae", "experimental": "as §1, §2"}, "[6]": {"test_system": "P. mirabilis", "experiment": "MIC by serial two-fold agar dilution (Mueller-Hinton agar), P. mirabilis", "conditions": "Proteus mirabilis; P. mirabilis A9900, Table 6; read-out: MIC", "experimental": "as §1, §2"}, "[7]": {"test_system": "P. vulgaris", "experiment": "MIC by serial two-fold agar dilution (Mueller-Hinton agar), P. vulgaris", "conditions": "Proteus vulgaris; P. vulgaris A9539, Table 6; read-out: MIC", "experimental": "as §1, §2"}, "[8]": {"test_system": "P. morganii", "experiment": "MIC by serial two-fold agar dilution (Mueller-Hinton agar), P. morganii", "conditions": "Morganella morganii; P. morganii A9553, Table 6; read-out: MIC", "experimental": "as §1, §2"}, "[9]": {"test_system": "S. enteritidis", "experiment": "MIC by serial two-fold agar dilution (Mueller-Hinton agar), S. enteritidis", "conditions": "Salmonella enterica; S. enteritidis A9531, Table 6; read-out: MIC", "experimental": "as §1, §2"}, "[10]": {"test_system": "S. marcescens", "experiment": "MIC by serial two-fold agar dilution (Mueller-Hinton agar), S. marcescens", "conditions": "Serratia marcescens; S. marcescens A20019, Table 6; read-out: MIC", "experimental": "as §1, §2"}, "[11]": {"test_system": "P. aeruginosa", "experiment": "MIC by serial two-fold agar dilution (Mueller-Hinton agar), P. aeruginosa, primary screening", "experimental": "as §1, §2"}, "[12]": {"test_system": "Pseudomonas sp.", "experiment": "MIC by serial two-fold agar dilution (Mueller-Hinton agar), Pseudomonas sp.", "conditions": "Pseudomonas sp. A20358, Table 6", "experimental": "as §2"}},
  "note": "Read-outs that look alike come from different tables or passages of the source.",
  "data": [
    {"smiles": "CC1(C)S[C@@H]2[C@H](NC(=O)C(C(=O)O)c3ccccc3)C(=O)N2[C@H]1C(=O)O", "note": "(stereo partly shown) [Carbenicillin]", "values": [
      {"measurement": "MIC", "setting": "[1]; S. aureus BX-1633 A9606, Table 6, read-out: MIC", "result": 3.1, "unit": "µg/mL"},
      {"measurement": "MIC", "setting": "[1]; S. aureus Smith A9537, Table 6, read-out: MIC", "result": 0.2, "unit": "µg/mL"},
      {"measurement": "MIC", "setting": "[1]; S. aureus Smith A15907, Table 6", "result": 25, "unit": "µg/mL"},
      {"measurement": "MIC", "setting": "[1]; S. aureus Smith A20239, Table 6, read-out: MIC", "result": 3.1, "unit": "µg/mL"},
      {"measurement": "MIC", "setting": "[1]; S. aureus Smith A20240, Table 6, read-out: MIC", "result": 6.3, "unit": "µg/mL"},
      {"measurement": "MIC", "setting": "[1]; S. aureus Smith A20701, Table 6, read-out: MIC", "result": 25, "unit": "µg/mL"},
      {"measurement": "MIC", "setting": "[2]; E. coli A9435, Table 6", "result": 6.3, "unit": "µg/mL"},
      {"measurement": "MIC", "setting": "[2]; E. coli A9844, Table 6", "result": 0.2, "unit": "µg/mL"},
      {"measurement": "MIC", "setting": "[2]; E. coli A10664, Table 6", "result": 0.8, "unit": "µg/mL"},
      {"measurement": "MIC", "setting": "[2]; E. coli A20366, Table 6", "result": "> 100", "unit": "µg/mL"},
      {"measurement": "MIC", "setting": "[2]; E. coli A20520, Table 6", "result": 3.1, "unit": "µg/mL"},
      {"measurement": "MIC", "setting": "[2]; E. coli A20732, Table 6", "result": 100, "unit": "µg/mL"},
      {"measurement": "MIC", "setting": "[2]; E. coli A20898, Table 6", "result": "> 100", "unit": "µg/mL"},
      {"measurement": "MIC", "setting": "[2]; E. coli Juhl A15119, Table 6", "result": 1.6, "unit": "µg/mL"},
      {"measurement": "MIC", "setting": "[2]; E. coli NIHJ, Table 6", "result": 0.4, "unit": "µg/mL"},
      {"measurement": "MIC", "setting": "[3]", "result": 3.1, "unit": "µg/mL"},
      {"measurement": "MIC", "setting": "[4]", "result": 6.3, "unit": "µg/mL"},
      {"measurement": "MIC", "setting": "[5]; E. cloacae A9656, Table 6", "result": 3.1, "unit": "µg/mL"},
      {"measurement": "MIC", "setting": "[5]; E. cloacae A9657, Table 6", "result": 12.5, "unit": "µg/mL"},
      {"measurement": "MIC", "setting": "[5]; E. cloacae A9659, Table 6", "result": 3.1, "unit": "µg/mL"},
      {"measurement": "MIC", "setting": "[6]", "result": 0.4, "unit": "µg/mL"},
      {"measurement": "MIC", "setting": "[7]", "result": 3.1, "unit": "µg/mL"},
      {"measurement": "MIC", "setting": "[8]", "result": "> 100", "unit": "µg/mL"},
      {"measurement": "MIC", "setting": "[9]", "result": 0.8, "unit": "µg/mL"},
      {"measurement": "MIC", "setting": "[10]", "result": 3.1, "unit": "µg/mL"},
      {"measurement": "MIC", "setting": "[11]; P. aeruginosa A20229, Table 6", "result": 12.5, "unit": "µg/mL"},
      {"measurement": "MIC", "setting": "[11]; Pseudomonas aeruginosa", "result": 12.5, "unit": "µg/mL"},
      {"measurement": "MIC", "setting": "[11]; Pseudomonas aeruginosa, P. aeruginosa A9843, Table 6, read-out: MIC", "result": 25, "unit": "µg/mL"},
      {"measurement": "MIC", "setting": "[11]; Pseudomonas aeruginosa, P. aeruginosa A9930, Table 6, read-out: MIC", "result": 25, "unit": "µg/mL"},
      {"measurement": "MIC", "setting": "[11]; Pseudomonas aeruginosa, P. aeruginosa A20717, Table 6, read-out: MIC", "result": 100, "unit": "µg/mL"},
      {"measurement": "MIC", "setting": "[12]", "result": 6.3, "unit": "µg/mL"}
    ]}
  ]
}
